# Assay results taken from patent US20230346717A1, “IDENTIFICATION AND USE OF COMPOUNDS IN THE TREATMENT OR PREVENTION OF SEVERE ACUTE RESPIRATORY SYNDROME CORONAVIRUS 2” (priority 2020, published 2023).
# Where a name gives a salt, the structure may show the parent alone.
# Assays:
# [1] = within 14 days of treatment; cited from earlier work
# CTSL = assay type: cell-based, human; details: ARPE-19/HPV-16 cells, 10 μM drug, 24 hours
# Experimental: The retinal pigment epithelia cell line, ARPE-19/HPV-16, was chosen to establish a database of drug profiles because of its non-cancerous, human origin, with a normal karyotype.
# Cells were aliquoted on 96-well plates (˜2×10^5 cells/well) and incubated for 24 hours prior to providing fresh media with a drug, or the drug vehicle (water, dimethyl sulfoxide, ethanol, methanol, or phosphate-buffered saline solution). Drugs were diluted 1000-fold in buffered Advanced D-MEM/F-12 culture medium (Invitrogen, Carlsbad, CA) containing nonessential amino acids and 110 mg/L sodium pyruvate.
# Cells were harvested 24 hours after treatment and RNA was extracted using the RNeasy 96 protocol (Qiagen, Valencia, CA). Gene expression for 22,238 probe sets of 12,490 genes was generated with U133A2.0 microarrays following the manufacturer's instructions (Affymetrix, Santa Clara, CA). Drugs were profiled in duplicate or triplicate, with multiple vehicle controls on each plate. A total of 708 microarrays were analyzed including 74 for 18 antipsychotics, 499 for 448 other compounds, and 135 for vehicle controls.
# The raw scan data were first converted to average difference values using MAS 5.0 (Affymetrix). The average difference values of both treatment and control data were set to a minimum threshold of 50 if below 50. For each treatment instance, all probe sets were then ranked based on their amplitude, or level of expression relative to the vehicle control (or average of controls when more than one was used). Amplitude was defined as the ratio of expression (t−v)/[(t+v)/2] where t corresponds to treatment instance and v to vehicle instance.
# Each drug group profile was created using a novel Weighted Influence Model, Rank of Ranks (WIMRR) method which underscores the rank of each probe set across the entire gene expression profile rather than the specific change in expression level. WIMRR takes the average rank of each probe set across all of the members of the group and then re-ranks the probe sets from smallest average rank to largest average rank. A gene-set enrichment metric based on the Kolmogorov-Smirnov (KS) statistic.
# Applicant analyzed expression profile of CTSL across all 466 drugs tested. In order to find positive hits and selected only those results that caused decrease of CTSL expression by at least 33% (1.5-fold down).
# FYCO1 = assay type: cell-based, human; details: ARPE-19 cells
# [2] = people with heart failure; cited from earlier work
# [3] = people with nonalcoholic fatty liver disease; cited from earlier work
# [4] = people with diabetes; cited from earlier work
# [5] = rats; cited from earlier work
# [6] = sepsis-induced acute lung injury in rats; cited from earlier work
# [7] = people with dyslipidemia; cited from earlier work
# [8] = 492 patients; cited from earlier work
# [9] = 404 ALI patients and 177 controls; cited from earlier work
# [10] = 230 ventilated patients with ALI; cited from earlier work
SMILES,log2(treated) CTSL (CTSL) [log2],"log2 difference (CTSL, treated vs control) (CTSL) [log2]","FYCO1 expression, Difference (treated vs control) (FYCO1)","FYCO1 expression, Treated (FYCO1)",further results
CC(C)c1c(C(=O)Nc2ccccc2)c(-c2ccccc2)c(-c2ccc(F)cc2)n1CC[C@@H](O)C[C@@H](O)CC(=O)O [Atorvastatin],–,–,–,–,decrease of the level of CoQ10 [1]: 49%
CN1[C@@H]2CC[C@H]1C[C@@H](OC(=O)C(CO)c1ccccc1)C2 (some centres unmarked) [Atropine Sulfate],9.63,−0.70,–,–,–
NCC(CC(=O)O)c1ccc(Cl)cc1 (centres unmarked) [Baclofen],9.58,−0.82,−1.2190,6.7222,–
CN(C)CCC(c1ccc(Br)cc1)c1ccccn1 (centres unmarked) [Brompheniramine Maleate],9.57,−0.75,–,–,–
"COC1=C(OC)C(=O)C(C/C=C(\C)CC/C=C(\C)CC/C=C(\C)CC/C=C(\C)CC/C=C(\C)CC/C=C(\C)CC/C=C(\C)CC/C=C(\C)CC/C=C(\C)CCC=C(C)C)=C(C)C1=O [CoQ10, Coenzyme Q10]",–,–,–,–,mortality and cardiac markers [2]: improves; liver and systemic markers of inflammation [3]: improves; total cholesterol and low-density lipoprotein levels [4]: improve; fibrosis in the lung and liver [5]: beneficial in attenuating fibrosis; pulmonary edema [6]: improved; survival [6]: improved; endothelial dysfunction [7]: improve
O=C1NC(=O)C(c2ccccc2)(c2ccccc2)N1 [Phenytoin],9.56,−0.70,–,–,–
Cc1ccc(/C(=C\CN2CCCC2)c2ccccn2)cc1 [Triprolidine Hydrochloride],9.54,−0.79,−1.4935,6.4963,–
COc1ccc2c(c1)c(CC(=O)O)c(C)n2C(=O)c1ccc(Cl)cc1 [indomethacin],–,–,−1.539,4.949,–
CCC1(c2ccccc2)C(=O)NCNC1=O [primidone],–,–,−1.4959,6.4453,–
CC(C)(C)C(=O)Oc1ccc(S(=O)(=O)Nc2ccccc2C(=O)NCC(=O)O)cc1 [sivelestat],–,–,–,–,28-day all-cause mortality [8]: no effect; ventilator free days [8]: no effect; number of ventilator free days [9]: significantly improved; 30-day survival rate [10]: no significant effect; ICU stay [10]: shortened; duration of mechanical ventilation [10]: reduced
